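Results reflect a 48-hour exposure of cells in 96-well plates to compound at five concentrations. Here, GI50 denotes the concentration required for 50% inhibition of growth.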 The source made the active and inactive calls. Cut-off read from the data, not from the text of the source: active = GI50 up to about 1.1 µM and inactive = higher.
Assays:
Experiment in all cases: inhibition of tumour cell growth, NCI panel, 48 h
786-0 = tested on: 786-0
A498 = tested on: A498
A549 = tested on: A549
ACHN = tested on: ACHN
BT-549 = tested on: BT-549
CAKI-1 = tested on: CAKI-1
CCRF-CEM = tested on: CCRF-CEM
COLO 205 = tested on: COLO 205
DU-145 = tested on: DU-145
EKVX = tested on: EKVX
HCT-116 = tested on: HCT-116
HCT-15 = tested on: HCT-15
HL-60 = tested on: HL-60
HOP-62 = tested on: HOP-62
HOP-92 = tested on: HOP-92
HT-29 = tested on: HT-29
Hs-578T = tested on: Hs-578T
IGROV-1 = tested on: IGROV-1
K562 = tested on: K562
KM12 = tested on: KM12
LOX IMVI = tested on: LOX IMVI
M14 = tested on: M14
MCF7 = tested on: MCF7
MDA-MB-231 = tested on: MDA-MB-231
MDA-MB-435 = tested on: MDA-MB-435
MDA-N = tested on: MDA-N
MOLT-4 = tested on: MOLT-4
Malme-3M = tested on: Malme-3M
NCI-H226 = tested on: NCI-H226
NCI-H23 = tested on: NCI-H23
NCI-H460 = tested on: NCI-H460
NCI-H522 = tested on: NCI-H522
NCI/ADR-RES = tested on: NCI/ADR-RES
OVCAR-3 = tested on: OVCAR-3
OVCAR-4 = tested on: OVCAR-4
OVCAR-5 = tested on: OVCAR-5
OVCAR-8 = tested on: OVCAR-8
PC-3 = tested on: PC-3
RPMI-8226 = tested on: RPMI-8226
RXF 393 = tested on: RXF 393
SF-268 = tested on: SF-268
SF-295 = tested on: SF-295
SF-539 = tested on: SF-539
SK-MEL-28 = tested on: SK-MEL-28
SK-MEL-2 = tested on: SK-MEL-2
SK-MEL-5 = tested on: SK-MEL-5
SK-OV-3 = tested on: SK-OV-3
SN12C = tested on: SN12C
SNB-19 = tested on: SNB-19
SNB-75 = tested on: SNB-75
SR = tested on: SR
SW-620 = tested on: SW-620
T47D = tested on: T47D
TK-10 = tested on: TK-10
U-251 = tested on: U-251
UACC-257 = tested on: UACC-257
UACC-62 = tested on: UACC-62
UO-31 = tested on: UO-31
HCC 2998 = tested on: HCC 2998

Compound: O=c1[nH]c(=S)[nH]c(-c2ccccc2)c1Cc1c(O)ccc2ccccc12 [CAMBINOL]
- GI50 (786-0): 34.9 µM (inactive)
- GI50 (A498): 21.3 µM (inactive)
- GI50 (A549): 32.2 µM (inactive)
- GI50 (ACHN): 34 µM (inactive)
- GI50 (BT-549): 27.1 µM (inactive)
- GI50 (CAKI-1): 25.5 µM (inactive)
- GI50 (CCRF-CEM): 19.9 µM (inactive)
- GI50 (COLO 205): 21.5 µM (inactive)
- GI50 (DU-145): 41.9 µM (inactive)
- GI50 (EKVX): 26.1 µM (inactive)
- GI50 (HCT-116): 24.7 µM (inactive)
- GI50 (HCT-15): 34.4 µM
- GI50 (HL-60): 20.6 µM (inactive)
- GI50 (HOP-62): 64 µM (inactive)
- GI50 (HOP-92): 26.1 µM (inactive)
- GI50 (HT-29): 39.4 µM (inactive)
- GI50 (Hs-578T): 43.9 µM (inactive)
- GI50 (IGROV-1): 33.7 µM (inactive)
- GI50 (K562): 31.3 µM (inactive)
- GI50 (KM12): 30.6 µM (inactive)
- GI50 (LOX IMVI): 36.1 µM (inactive)
- GI50 (M14): 27.9 µM (inactive)
- GI50 (MCF7): 33 µM (inactive)
- GI50 (MDA-MB-231): 38.6 µM (inactive)
- GI50 (MDA-MB-435): 31 µM (inactive)
- GI50 (MDA-N): 27.9 µM (inactive)
- GI50 (MOLT-4): 26.1 µM (inactive)
- GI50 (Malme-3M): 7.98 µM (inactive)
- GI50 (NCI-H226): 29.6 µM (inactive)
- GI50 (NCI-H23): 29.6 µM (inactive)
- GI50 (NCI-H460): 48.2 µM (inactive)
- GI50 (NCI-H522): 8.89 µM (inactive)
- GI50 (NCI/ADR-RES): 33.5 µM (inactive)
- GI50 (OVCAR-3): 54.3 µM (inactive)
- GI50 (OVCAR-4): 39.7 µM (inactive)
- GI50 (OVCAR-5): 33.4 µM (inactive)
- GI50 (OVCAR-8): 38 µM (inactive)
- GI50 (PC-3): 37.2 µM (inactive)
- GI50 (RPMI-8226): 21.6 µM (inactive)
- GI50 (RXF 393): 29.8 µM (inactive)
- GI50 (SF-268): 24.7 µM (inactive)
- GI50 (SF-295): 52 µM (inactive)
- GI50 (SF-539): 25.6 µM (inactive)
- GI50 (SK-MEL-28): 39.2 µM (inactive)
- GI50 (SK-MEL-2): 20.4 µM (inactive)
- GI50 (SK-MEL-5): 21 µM (inactive)
- GI50 (SK-OV-3): 46.1 µM (inactive)
- GI50 (SN12C): 32.7 µM (inactive)
- GI50 (SNB-19): 37.2 µM (inactive)
- GI50 (SNB-75): 25.6 µM (inactive)
- GI50 (SR): 34.8 µM (inactive)
- GI50 (SW-620): 42.8 µM (inactive)
- GI50 (T47D): 24.4 µM (inactive)
- GI50 (TK-10): 29.1 µM (inactive)
- GI50 (U-251): 36.1 µM (inactive)
- GI50 (UACC-257): 27.2 µM (inactive)
- GI50 (UACC-62): 21 µM (inactive)
- GI50 (UO-31): 29.6 µM (inactive)

Compound: O=C(CSc1nnc(-c2ccccn2)s1)N/N=C/c1ccc([N+](=O)[O-])cc1
- GI50 (786-0): 41.9 µM (inactive)
- GI50 (A498): 31 µM (inactive)
- GI50 (A549): 58.5 µM (inactive)
- GI50 (ACHN): 53.8 µM (inactive)
- GI50 (BT-549): 56.2 µM (inactive)
- GI50 (CAKI-1): > 100 µM (inactive)
- GI50 (CCRF-CEM): > 100 µM (inactive)
- GI50 (COLO 205): > 100 µM (inactive)
- GI50 (DU-145): 11.4 µM (inactive)
- GI50 (HCT-116): 55.7 µM (inactive)
- GI50 (HCT-15): 45.6 µM
- GI50 (HL-60): > 100 µM (inactive)
- GI50 (HOP-62): 35.6 µM (inactive)
- GI50 (HOP-92): 16.3 µM (inactive)
- GI50 (HT-29): > 100 µM (inactive)
- GI50 (Hs-578T): 32.1 µM (inactive)
- GI50 (IGROV-1): 20.9 µM (inactive)
- GI50 (K562): > 100 µM (inactive)
- GI50 (KM12): > 100 µM (inactive)
- GI50 (LOX IMVI): > 100 µM (inactive)
- GI50 (M14): > 100 µM (inactive)
- GI50 (MCF7): > 100 µM (inactive)
- GI50 (MDA-MB-231): 15.9 µM (inactive)
- GI50 (MDA-MB-435): > 100 µM (inactive)
- GI50 (MDA-N): > 100 µM (inactive)
- GI50 (MOLT-4): > 100 µM (inactive)
- GI50 (Malme-3M): > 100 µM (inactive)
- GI50 (NCI-H226): > 100 µM (inactive)
- GI50 (NCI-H23): > 100 µM (inactive)
- GI50 (NCI-H460): > 100 µM (inactive)
- GI50 (NCI-H522): > 100 µM (inactive)
- GI50 (NCI/ADR-RES): > 100 µM (inactive)
- GI50 (OVCAR-3): > 100 µM (inactive)
- GI50 (OVCAR-4): > 100 µM (inactive)
- GI50 (OVCAR-5): > 100 µM (inactive)
- GI50 (OVCAR-8): 41.8 µM (inactive)
- GI50 (PC-3): 65.8 µM (inactive)
- GI50 (RXF 393): 12.1 µM (inactive)
- GI50 (SF-268): 22.1 µM (inactive)
- GI50 (SF-295): 29.4 µM (inactive)
- GI50 (SF-539): 59.2 µM (inactive)
- GI50 (SK-MEL-28): > 100 µM (inactive)
- GI50 (SK-MEL-2): 77.1 µM (inactive)
- GI50 (SK-MEL-5): > 100 µM (inactive)
- GI50 (SK-OV-3): 35.2 µM (inactive)
- GI50 (SN12C): 69.8 µM (inactive)
- GI50 (SNB-19): 21.9 µM (inactive)
- GI50 (SNB-75): 2.86 µM (inactive)
- GI50 (SR): > 100 µM (inactive)
- GI50 (SW-620): > 100 µM (inactive)
- GI50 (T47D): 37.1 µM (inactive)
- GI50 (TK-10): 21.7 µM (inactive)
- GI50 (U-251): 14.5 µM (inactive)
- GI50 (UACC-257): > 100 µM (inactive)
- GI50 (UACC-62): 76.4 µM (inactive)
- GI50 (UO-31): < 0.01 µM (active)

Compound: O=c1[nH]nc(Cc2ccccc2)n1/N=C/c1ccccc1Cl
- GI50 (786-0): 41.1 µM (inactive)
- GI50 (A498): > 100 µM (inactive)
- GI50 (A549): > 100 µM (inactive)
- GI50 (ACHN): > 100 µM (inactive)
- GI50 (BT-549): > 100 µM (inactive)
- GI50 (CAKI-1): > 100 µM (inactive)
- GI50 (COLO 205): > 100 µM (inactive)
- GI50 (DU-145): > 100 µM (inactive)
- GI50 (EKVX): > 100 µM (inactive)
- GI50 (HCC 2998): > 100 µM (inactive)
- GI50 (HCT-116): > 100 µM (inactive)
- GI50 (HCT-15): > 100 µM
- GI50 (HOP-92): 95.9 µM (inactive)
- GI50 (HT-29): > 100 µM (inactive)
- GI50 (Hs-578T): 43.4 µM (inactive)
- GI50 (IGROV-1): > 100 µM (inactive)
- GI50 (K562): > 100 µM (inactive)
- GI50 (KM12): > 100 µM (inactive)
- GI50 (LOX IMVI): > 100 µM (inactive)
- GI50 (MCF7): > 100 µM (inactive)
- GI50 (MDA-MB-231): > 100 µM (inactive)
- GI50 (MDA-MB-435): > 100 µM (inactive)
- GI50 (MDA-N): > 100 µM (inactive)
- GI50 (MOLT-4): > 100 µM (inactive)
- GI50 (Malme-3M): > 100 µM (inactive)
- GI50 (NCI-H226): > 100 µM (inactive)
- GI50 (NCI-H23): > 100 µM (inactive)
- GI50 (NCI-H460): > 100 µM (inactive)
- GI50 (NCI-H522): > 100 µM (inactive)
- GI50 (NCI/ADR-RES): > 100 µM (inactive)
- GI50 (OVCAR-3): > 100 µM (inactive)
- GI50 (OVCAR-4): > 100 µM (inactive)
- GI50 (OVCAR-5): > 100 µM (inactive)
- GI50 (OVCAR-8): > 100 µM (inactive)
- GI50 (PC-3): > 100 µM (inactive)
- GI50 (RPMI-8226): > 100 µM (inactive)
- GI50 (RXF 393): 3.56 µM (inactive)
- GI50 (SF-268): > 100 µM (inactive)
- GI50 (SF-295): 52.2 µM (inactive)
- GI50 (SF-539): > 100 µM (inactive)
- GI50 (SK-MEL-2): > 100 µM (inactive)
- GI50 (SK-MEL-5): > 100 µM (inactive)
- GI50 (SK-OV-3): > 100 µM (inactive)
- GI50 (SN12C): > 100 µM (inactive)
- GI50 (SNB-19): > 100 µM (inactive)
- GI50 (SR): > 100 µM (inactive)
- GI50 (SW-620): > 100 µM (inactive)
- GI50 (T47D): > 100 µM (inactive)
- GI50 (TK-10): > 100 µM (inactive)
- GI50 (U-251): 53.1 µM (inactive)
- GI50 (UACC-257): > 100 µM (inactive)
- GI50 (UACC-62): > 100 µM (inactive)
- GI50 (UO-31): > 100 µM (inactive)

From ChEMBL document CHEMBL1201862, “PubChem BioAssay data set” (2004)
